Measured values from US9180193B2, “Antiviral compounds” (Hoffmann-La Roche Inc., priority 2011, dated 2015).

Key:
[1] = tested on: GT-1a pRLuc H77 1b 75 SI subgenomic replicon cell line (Huh7); assay: HCV GT-1a replicon luciferase reporter assay; type: cell-based; details: Hepatitis C virus, GT1A, Huh-7; Renilla luciferase reporter read 72 hours after compound addition; GT-1a H77 replicon cells
Description: Determination of compounds HCV GT1b inhibitory replicon activity using the replicon luciferase reporter assay
The 2209-23 cell line was developed at Roche by stable transfection of the hepatoma cell line Huh-7 with a GT-1b Con1 subgenomic bicistronic replicon as previously described. Subgenomic replicon cell line was established in cured Huh7 cells, obtained from R. Bartenschlager (J Virol. 2003 March; 77 (5):3007-19) The GT-1a H77 subgenomic replicon vector pRLuc H77 lb 75 SI, was created by replacing the non structural region of the GT-1b Con1 subgenomic replicon by the one of the H77 strain, except for the first 75 amino acids of the NS3 protein that are from GT-1b Con1 strain. (J Virol. 2001 77:5352-59) The GT-1a pRLuc H77 1b 75 SI subgenomic replicon cell line was established in cured Huh7 cells, obtained from R. Bartenschlager. (J Virol. 2003 March; 77 (5):3007-19)
All the subgenomic replicon cell lines were cultured in Dulbecco's Modified Eagle Medium (DMEM-Glutamax™-I; Invitrogen Cat #10569-010). The medium was supplemented with 10% Fetal Bovine Serum (Invitrogen Cat #10082-147), 1% penicillin/streptomycin (Mediatech Cat #30-002-CI) and 500 μg/ml of G418 (Mediatech Cat #30-234-CI). Cells were maintained at 37° C. in a humidified 5% CO2 atmosphere.
2209-23 cells were plated at a cell density of 5000 cells per well in 96 well plates (Becton Dickinson, Cat #35 3296). Cells were plated in 90 μl of Dulbecco's Modified Eagle Medium (DMEM-Glutamax™-I), (Invitrogen Cat #10569-010) medium was supplemented with 5% Fetal Bovine Serum (Invitrogen Cat #10082-147), 1% penicillin/streptomycin (Mediatech Cat #30-002-CI). The pRluc H77 1b 75 SI cells were plated in 96-well plate at 3000 cells/well in DMEM-Glutamax™-I containing 5% FBS and 1% penicillin/streptomycin in 90 μl final volume. Cells were allowed to equilibrate for 24 hours at 37° C. and 5% CO2 at which time compounds were added. Compounds (or medium as a control) were added 24 hours post-plating in 3 fold dilutions at a final DMSO concentration of 1% in 10 ul volume. Renilla luciferase reporter signal was read 72 hours after addition of compounds using the Renilla Luciferase Assay System (Promega, cat # E2820). EC50 values were defined as the compound concentration at which a 50% reduction in the levels of renilla luciferase reporter was observed as compared to control samples in the absence of compound and was determined by non-linear fitting of compound dose-response data. The EC50 was approximated if maximum percentage inhibition was less than 90% and more than 70%.

in vitro = type: cell-based; details: human
Protocol: Determination of Compounds Cytotoxicity Using the HCV GT1b Replicon Cell Line Measuring WST1.
2209-23 cells were plated at a cell density of 5000 cells per well in clear flat-bottom 96 well plate (Becton Dickinson, Cat #35 3075) for cell viability studies. The WST-1 cell proliferation assay (Roche Diagnostic, Cat#11644807001) was used to determine cell viability. Assay plates were set up in the same format as in the replicon assay. After 3 days of compound incubation 10 μl of WST-1 reagent was added to each well for 2 hours at 37° C. and 5% CO2, following manufacturer's instructions. Absorption reading at 450 nm (reference filter at 650 nm) was determined using MRX Revelation microtiter plate reader (Lab System). CC50 values were defined as the compound concentration required for reducing cell viability by 50% as compared to the untreated control in absence of compound and was determined by non-linear fitting of compound dose-response data. Representative assay data can be found in Table II below: […]

Row | SMILES | EC50 [1] [nM] | CC50 at 3 days (in vitro) [nM]
1 | COC(=O)N[C@H]1CCC(=O)N2CCC[C@@H](c3ncc(-c4ccc(-c5ccc(-c6cnc([C@@H]7CCCN8C(=O)CC[C@H](NC(=O)OC)C(=O)N78)[nH]6)cc5)cc4)[nH]3)N2C1=O [Compound I-1, [(4S,7S)-4-(5-{4′-[2-((1S,9S)-9-[(Methoxycarbonyl)amino]-6,10-dioxo-octahydro-pyridazino[1,2-a][1,2]diazepin-1-yl)-3H-imidazol-4-yl]-biphenyl-4-yl}-1H-imidazol-2-yl)-6,10-dioxo-octahydro-pyridazino[1,2-a][1,2]diazepin-7-yl]-carbamic acid methyl ester] | 10.6 | –
2 | COC(=O)N[C@H]1CCC(=O)N2CCC[C@@H](c3nc4cc(-c5ccc(-c6cnc([C@@H]7CCCN7C(=O)[C@@H](NC(=O)OC)C(C)C)[nH]6)cc5)ccc4[nH]3)N2C1=O [Compound I-2, {(4S,7S)-4-[5-(4-{2-[(S)-1-((S)-2-Methoxycarbonylamino-3-methyl-butyryl)-pyrrolidin-2-yl]-3H-imidazol-4-yl}-phenyl)-1H-benzoimidazol-2-yl]-6,10-dioxo-octahydro-pyridazino[1,2-a][1,2]diazepin-7-yl}-carbamic acid methyl ester] | 156 | –
3 | COC(=O)N[C@H](C(=O)N1CCC[C@H]1c1ncc(-c2ccc(-c3ccc(-c4cnc([C@@H]5CCCN6C(=O)CC[C@H](NC(=O)OCc7ccccc7)C(=O)N56)[nH]4)cc3)cc2)[nH]1)C(C)C [Compound I-3, {(4S,7S)-4-[5-(4′-{2-[(S)-1-((S)-2-Methoxycarbonylamino-3-methyl-butyryl)-pyrrolidin-2-yl]-3H-imidazol-4-yl}-biphenyl-4-yl)-1H-imidazol-2-yl]-6,10-dioxo-octahydro-pyridazino[1,2-a][1,2]diazepin-7-yl}-carbamic acid benzyl ester] | 2.95 | –
4 | COC(=O)N[C@H]1CCC(=O)N2CCC[C@@H](c3ncc(-c4ccc(-c5cnc6cc(-c7cnc([C@@H]8CCCN8C(=O)[C@@H](NC(=O)OC)C(C)C)[nH]7)ccc6n5)cc4)[nH]3)N2C1=O [Compound I-4, ((4S,7S)-4-{5-[4-(6-{2-[(S)-1-((S)-2-Methoxycarbonylamino-3-methyl-butyryl)-pyrrolidin-2-yl]-3H-imidazol-4-yl}-quinoxalin-2-yl)-phenyl]-1H-imidazol-2-yl}-6,10-dioxo-octahydro-pyridazino[1,2-a][1,2]diazepin-7-yl)-carbamic acid methyl ester] | 0.13 | 8160
5 | COC(=O)N[C@H]1CCC(=O)N2CCC[C@@H](c3ncc(-c4ccc(-c5ccc(-c6cnc([C@@H]7CC(F)(F)CN7C(=O)[C@@H](NC(=O)OC)C(C)C)[nH]6)cc5)cc4)[nH]3)N2C1=O [Compound I-5, {(4S,7S)-4-[5-(4′-{2-[(S)-4,4-Difluoro-1-((S)-2-methoxycarbonylamino-3-methyl-butyryl)-pyrrolidin-2-yl]-3H-imidazol-4-yl}-biphenyl-4-yl)-1H-imidazol-2-yl]-6,10-dioxo-octahydro-pyridazino[1,2-a][1,2]diazepin-7-yl}-carbamic acid methyl ester] | 0.92 | –
6 | COC(=O)N[C@H]1CCC(=O)N2CCC[C@@H](c3ncc(-c4ccc(-c5ccc(-c6cnc(C7CC8(CCOCC8)CN7C(=O)[C@@H](NC(=O)OC)C(C)C)[nH]6)cc5)cc4)[nH]3)N2C1=O (stereo partly drawn) [Compound I-6, {(4S,7S)-4-[5-(4′-{2-[2-((S)-2-Methoxycarbonylamino-3-methyl-butyryl)-8-oxa-2-aza-spiro[4.5]dec-3-yl]-3H-imidazol-4-yl}-biphenyl-4-yl)-1H-imidazol-2-yl]-6,10-dioxo-octahydro-pyridazino[1,2-a][1,2]diazepin-7-yl}-carbamic acid methyl ester] | 1.5 | –
7 | COC(=O)N[C@H]1CCC(=O)N2CCC[C@@H](c3ncc(-c4ccc(-c5ccc(-c6cnc([C@@H]7CCCN7C(=O)[C@@H](NC(=O)OC)C(C)C)[nH]6)cc5)cc4)[nH]3)N2C1=O [Compound I-7, {(4S,7S)-4-[5-(4′-{2-[(S)-1-((S)-2-Methoxycarbonylamino-3-methyl-butyryl)-pyrrolidin-2-yl]-3H-imidazol-4-yl}-biphenyl-4-yl)-1H-imidazol-2-yl]-6,10-dioxo-octahydro-pyridazino[1,2-a][1,2]diazepin-7-yl}-carbamic acid methyl ester] | 1.1 | –
